The values below come from patent US7067714B1 (priority 1999, dated 2006).

One assay relates to N-type Ca channel. The class given is cell-based, mouse.

Take ω-conotoxin GVIA: the “influx of Ca2+ inhibited by ω-conotoxin GVIA” value with N-type Ca channel is recorded as “not observed”.

For the compound `NC1=N[C@H](O)[C@H]2[C@H]3O[C@]4(O)O[C@@H]([C@@H](O)[C@@]2(N1)[C@@H]4O)[C@]3(O)CO` [tetrodotoxin], the “increase in atrial muscle contractile force by nerve stimulus” value in the assay with isolated mouse atrium is “completely inhibited”.
